“Also recorded” adds a separate entry of the source.
What was measured:
[1] = system: experimental autoimmune encephalomyelitis (EAE); assay: Experimental autoimmune encephalomyelitis (EAE) model of multiple sclerosis; format: in vivo, mouse
Procedure: Six groups of B6 mice were immunized with MOG/CFA and injected with pertussis toxin to induce experimental autoimmune encephalomyelitis (EAE), an animal model of Multiple sclerosis. Three groups of mice were treated with vehicle, 4-{3-[1-benzhydryl-5-chloro-2-(2-{[(2,6-dimethylbenzyl)sulfonyl]amino}ethyl)-1H-indol-3-yl]propyl}benzoic acid (Compound A), or 4-{2-[1-benzhydryl-5-chloro-2-(2-{[(3,4-dichlorobenzyl)sulfonyl]amino}-ethyl)-1H-indol-3-yl]ethoxy}benzoic acid (Compound B) from the day of Immunization (orally, 100 mg/kg, twice/day). Another three groups of mice were treated with vehicle, Compound A or Compound B starting on the day of EAE onset (day 15) (orally, 100 mg/kg, twice/day). […] The results are shown in the Table below, wherein mean clinical score is a mean of clinical evaluation of each animal for that particular day.
Animals are Scored as Follows:
• 0—no clinical signs of EAE (no paralysis) • 1—paralysis of tail • 2—paralysis of tail and partial hind leg paralysis • 3—paralysis of tail and complete hind leg paralysis • 4—paralysis of tail, complete hind leg paralysis and a partial front leg paralysis • 5—moribund animal (all four limbs paralyzed, lack of responsiveness, these mice were immediately euthanized).
In addition, the compounds of Examples 14 and 25 were also found to be efficacious in the mouse experimental autoimmune encephalomyelitis (EAE) model of multiple sclerosis. As shown by the data in the Table below, these compounds led to a delayed onset of disease and reduced severity of disease when administered orally in doses as low as 2.5 mg/kg.

[2] = system: primary dopaminergic neurons; assay: MPP+ exposure in dopaminergic neurons; format: cell-based, rat; details: 10 μM MPP+ 60 minutes, control 100, MPP+ alone 56.6
Procedure: Primary dopaminergic neurons were isolated from E15 rat embryos as described in Pong K., et al., (1997) J. Neurochem. 69 986-994. Briefly, the ventral mesencephalon was isolated and tissue was pooled in ice-cold phosphate buffer saline (PBS) without Ca^2+ and Mg^2+. The tissue was transferred to an enzymatic dissociation media containing 20 IU/ml papain in Earle's balanced salt solution (Worthington Biochemical, Freehold, N.J.) and incubated for 30 minutes at 37° C. After enzymatic dissociation, the papain solution was aspirated and the tissue mechanically triturated with a fire-polished Pasteur pipette in complete media [Neurobasal Medium with B-27 supplement (Gibco, Grand Island, N.Y.), penicillin/streptomycin, aphidicolin, glutamate] containing 2,000 IU/ml DNase and 10 mg/ml ovomucoid protease inhibitor. Single-cell suspensions in complete media were plated on pre-coated poly-L-ornithine/laminin 24-well plates (Becton-Dickinson, Bedford, Mass.) at a density of 5.0×10^5 cells/well. Cells were maintained for one week prior to experimentation.
Cultures were exposed to 10 μM MPP^+ for 60 minutes. After the exposure, fresh media was exchanged and fresh compound was added. Dopaminergic neuron viability was determined 24 hours later by measuring ^3H-dopamine uptake as described in Pong et al., 1997, supra.

[3] = system: carrageenan paw edema; assay: Carrageenan paw edema assay; format: in vivo; details: oral
Procedure: The carrageenan paw edema assay is an acute model of inflammation that is particularly useful for in vivo assessment of compounds that effect the production of prostaglandins. In particular, NSAIDs inhibit edema in a characteristic dose response fashion in this model, and the activity of NSAIDs in this model correlates well with the activity observed in man (See Mukherjee A, et al., Inflamm Res. 1996; 45:531-540). Therefore, the compound of Example 10 was tested in the carrageenan paw edema model.

[4] = system: serum thromboxane B2; assay: Thromboxane B2 levels in the ApoE KO mouse model; format: in vivo; details: ApoE KO mice, 3.3 mg/g chow for two days; vehicle 76.1±17.3
Procedure: Blood was collected through the retro-orbital siunus and left to coagulate at 37° C. for one hour. Serum was then isolated and assayed for thromboxane B2 by ELISA.
In a separate experiment, ApoE KO mice were dosed with vehicle or the compound of Example 25 at 10 mg/kg by oral gavage. Blood was collected through the retro-orbital siunus and left to coagulate at 37° C. for one hour. Serum was then isolated and assayed for thromboxane B2 by ELISA.

[5] = system: collagen-induced arthritis; assay: Collagen-induced arthritis (CIA) model; format: in vivo, mouse
Procedure: The compound of Example 10 was tested in the mouse CIA model, which has many immunologic and pathologic similarities to human rheumatoid arthritis (See Trentham, D. E., et al., supra). Arthritis was induced in DBA/1LacJ mice by intradermal injection of an emulsion of bovine type II collagen and CFA followed by a boost with an intradermal injection of bovine type II collagen emulsified in incomplete Freund's Adjuvant 21 days after the initial immunization. […] At that point animals were randomly assigned to treatment groups and administered the compound of Example 10 (100 mg/kg) PO BID for 28 days. Control groups received celecoxib, vehicle alone or were left untreated. All animals were scored daily in a blinded fashion for visual signs of disease symptoms.
The mean scores of the group treated with the compound of Example 10 were compared to the vehicle-control group values using the Student's t-test.
After completion of the experiments, paws were processed for histology. Two board certified veterinary pathologist evaluated the slides in a blinded fashion. Each paw was assigned a numerical score for both arthritis severity and the general number of joints affected.

Cc1cccc(C)c1CS(=O)(=O)NCCc1c(CCCc2ccc(C(=O)O)cc2)c2cc(Cl)ccc2n1C(c1ccccc1)c1ccccc1 [Compound A, 4-{3-[1-benzhydryl-5-chloro-2-(2-{[(2,6-dimethylbenzyl)sulfonyl]amino}ethyl)-1H-indol-3-yl]propyl}benzoic acid]
mean clinical score ([1]; 100 mg/kg orally twice/day from EAE onset (day 15), day 11 after immunization): 0 | mean clinical score ([1]; 100 mg/kg orally twice/day from EAE onset (day 15), day 12 after immunization): 0 | mean clinical score ([1]; 100 mg/kg orally twice/day from EAE onset (day 15), day 13 after immunization): 0 | mean clinical score ([1]; 100 mg/kg orally twice/day from EAE onset (day 15), day 14 after immunization): 0 | mean clinical score ([1]; 100 mg/kg orally twice/day from EAE onset (day 15), day 15 after immunization): 0.33 | mean clinical score ([1]; 100 mg/kg orally twice/day from EAE onset (day 15), day 16 after immunization): 0.60 | mean clinical score ([1]; 100 mg/kg orally twice/day from EAE onset (day 15), day 17 after immunization): 0.80 | mean clinical score ([1]; 100 mg/kg orally twice/day from EAE onset (day 15), day 18 after immunization): 1.03 | mean clinical score ([1]; 100 mg/kg orally twice/day from EAE onset (day 15), day 19 after immunization): 1.13 | mean clinical score ([1]; 100 mg/kg orally twice/day from EAE onset (day 15), day 20 after immunization): 1.50 | mean clinical score ([1]; 100 mg/kg orally twice/day from EAE onset (day 15), day 21 after immunization): 1.57 | mean clinical score ([1]; 100 mg/kg orally twice/day from EAE onset (day 15), day 22 after immunization): 1.60 | mean clinical score ([1]; 100 mg/kg orally twice/day from EAE onset (day 15), day 23 after immunization): 1.37 | mean clinical score ([1]; 100 mg/kg orally twice/day from EAE onset (day 15), day 24 after immunization): 1.43 | mean clinical score ([1]; 100 mg/kg orally twice/day from EAE onset (day 15), day 25 after immunization): 1.23 | mean clinical score ([1]; 100 mg/kg orally twice/day from EAE onset (day 15), day 26 after immunization): 0.87 | mean clinical score ([1]; 100 mg/kg orally twice/day from EAE onset (day 15), day 27 after immunization): 0.87 | mean clinical score ([1]; 100 mg/kg orally twice/day from day of immunization (Day 1), day 11 after immunization): 0 | mean clinical score ([1]; 100 mg/kg orally twice/day from day of immunization (Day 1), day 12 after immunization): 0 | mean clinical score ([1]; 100 mg/kg orally twice/day from day of immunization (Day 1), day 13 after immunization): 0 | mean clinical score ([1]; 100 mg/kg orally twice/day from day of immunization (Day 1), day 14 after immunization): 0 | mean clinical score ([1]; 100 mg/kg orally twice/day from day of immunization (Day 1), day 15 after immunization): 0 | mean clinical score ([1]; 100 mg/kg orally twice/day from day of immunization (Day 1), day 16 after immunization): 0 | mean clinical score ([1]; 100 mg/kg orally twice/day from day of immunization (Day 1), day 17 after immunization): 0 | mean clinical score ([1]; 100 mg/kg orally twice/day from day of immunization (Day 1), day 18 after immunization): 0 | mean clinical score ([1]; 100 mg/kg orally twice/day from day of immunization (Day 1), day 19 after immunization): 0 | mean clinical score ([1]; 100 mg/kg orally twice/day from day of immunization (Day 1), day 20 after immunization): 0 | mean clinical score ([1]; 100 mg/kg orally twice/day from day of immunization (Day 1), day 21 after immunization): 0.06 | mean clinical score ([1]; 100 mg/kg orally twice/day from day of immunization (Day 1), day 22 after immunization): 0.09 | mean clinical score ([1]; 100 mg/kg orally twice/day from day of immunization (Day 1), day 23 after immunization): 0.16 | mean clinical score ([1]; 100 mg/kg orally twice/day from day of immunization (Day 1), day 24 after immunization): 0.19 | mean clinical score ([1]; 100 mg/kg orally twice/day from day of immunization (Day 1), day 25 after immunization): 0.25 | mean clinical score ([1]; 100 mg/kg orally twice/day from day of immunization (Day 1), day 26 after immunization): 0.28 | mean clinical score ([1]; 100 mg/kg orally twice/day from day of immunization (Day 1), day 27 after immunization): 0.38 | prevention of EAE / reduction of clinical severity ([1]; administered from the time of immunization, or in mice with or close to EAE): can prevent EAE | dopaminergic neuron viability (3H-dopamine uptake), Avg. ([2]; 0.3 μM): 76.9 | dopaminergic neuron viability (3H-dopamine uptake), Avg. ([2]; 1 μM): 83.4 | dopaminergic neuron viability (3H-dopamine uptake), Avg. ([2]; 3 μM): 78.8 | dopaminergic neuron viability (3H-dopamine uptake), Avg. ([2]; 10 μM): 81.1

O=C(O)c1ccc(CCCc2c(CCNS(=O)(=O)Cc3ccccc3C(F)(F)F)n(C(c3ccccc3)c3ccccc3)c3ccc(Cl)cc23)cc1 [Example 10, 4-(3-{5-chloro-1-(diphenylmethyl)-2-[2-({[2-(trifluoromethyl)benzyl]sulfonyl}amino)ethyl]-1H-indol-3-yl}propyl)benzoic acid]
Paw edema ([3]; 2 hours before carrageenan, doses as low as 3 mg/kg): statistically significantly decreased; also recorded: significantly inhibited edema | ED50 ([3]; based on a maximal inhibition of 50%, read-out: approximate ED50 of paw edema inhibition): ~7.5 mg/kg | serum Thromboxane concentration [4]: 1.4 ± 0.7 ng/mL | group mean severity scores (paw histology) ([5]; 100 mg/kg BID): lowest group mean severity scores | percentage of unaffected (grade 0) paws (histology) ([5]; 100 mg/kg BID): highest percentage of unaffected (grade 0) paws | number of animals without disease symptoms ([5]; 100 mg/kg PO BID): greatest | disease severity scores vs vehicle control ([5]; 100 mg/kg PO BID for 28 days, semi-therapeutic, from day 10): statistically significant decrease; also recorded: significant reduction of disease | average severity grade (histology), pathologist 1 ([5]; 100 mg/kg, vehicle 2.1): 0.9 | average severity grade (histology), pathologist 2 ([5]; 100 mg/kg, vehicle 3.0): 2.1

From patent US8283373B2, “Inhibitors of cytosolic phospholipase A2” (Pfizer Inc., priority 2005, dated 2012)
